Results on eight compounds are retold here after article PMC1559639 (BMC Clinical Pharmacology, 2006).

The nature of data set [1]: Plasma kinetics after single oral dose of 300 mg Pycnogenol in healthy volunteers. Format: in vivo, human. As to conditions: for tmax: read-out: tmax (time of maximal plasma concentration); for half-life: read-out: term t½ (terminal half-life) (converted). As for the experimental part:
Eleven volunteers (five female and six male) participated in this study. After a 24 hour diet free of flavonoids (no vegetables, fruits and fruit juices or marmalades, tea, coffee, cocoa, wine and beer) a venous blood catheter was inserted into an antecubital vein and blood samples were drawn to obtain basal values (t = 0 h at 8:00 a.m.). […] After each blood sampling mineral water was served. Blood samples were obtained at t = 0.5 h, 1 h, 2 h, 4 h, 6 h, 8 h, 10 h, 12 h and 14 h. Samples were centrifuged and plasma was aliquoted, shock frozen and stored at -80°C until further analysis.
(§1) Plasma samples of 2.0 mL were prepared for analysis. For determination of total plasma concentration, to each sample 20 U β-glucuronidase (type H-3 from Helix pomatia; EC 3.2.1.31) and 20 U sulfatase (type H-1 from Helix pomatia; EC 3.1.6.1) were added in 50 mM sodium acetate buffer (pH 5.0) and incubated for 2 h at 37°C under gentle shaking. Samples for determination of free plasma concentrations were prepared without prior incubation with enzymes. Each 20 μL of p-hydroxybenzoic acid methylester (100 μg/mL; for HPLC UV detection) and hydrochinone (10 μg/mL; for HPLC electrochemical detection) were added as internal standards and samples were acidified with 100 μL 1 M-HCl. Samples were extracted twice with each 3 mL acetic acid methylester for 20 min, using a roller mixer, followed by centrifugation (20°C) 5 min. The organic phases of both extractions were separated, combined and evaporated to dryness under a gentle stream of nitrogen at 25°C. The resulting residue was reconstituted in 100 μL methanol and subjected to HPLC analysis.
(§2) The HPLC system was a Waters HPLC (Milford, MA, USA) consisted of a 1525 binary pump, a 717plus autosampler, a 2487 dual wavelength absorbance detector set at the detection wavelength of 280 nm and an electrochemical detector CLC 100 (Chromsystems, Munich, Germany) set at an oxidation voltage of 0.5 V. The second detector was connected to the control system by a satellite interface (Waters). Data collection and integration were accomplished using Breeze™ software version 3.30. Analysis was performed on a Zorbax SB C8 column (150 × 4.6 mm I.D., 5 μm particle size, Agilent Technologies, Palo Alto, CA, USA).
(§3) Typically, 20 μL of sample were injected and separated at a flow rate of 1 mL/min. Isocratic elution was performed using water (containing 0.6 mM 1-octanesulfonic acid sodium salt, 0.27 mM ethylenediaminetetraacetic acid disodium salt, 0.04 M triethylamine; pH 2.95 adjusted with phosphoric acid) and acetonitrile (ACN, HPLC gradient quality, Fisher Scientific, Schwerte, Germany). Method A (for UV detection of ferulic acid, M2 (δ-(3-Methoxy-4-hydroxy-phenyl)-γ-valerolactone), U1, U2, U3, U4, U7, U8, and U9) used water/ACN at 85:15 (v/v).

The subject of the next data set is MMP-9 release. The settings on record: in vitro / cell culture assays; read-out: IC50, inhibition of MMP-9 release; cited from earlier work.
A short description of another data set: clinical. Format: in vivo. As to conditions: for % conjugated (mean degree of conjugation with sulfate and glucuronic acid): steady state plasma, mean of volunteers; for concentration at 4 h: both sexes, 200 mg. As for the experimental part: Five volunteers (four female and one person) participated in this study. After a 24 hour diet free of flavonoids blood samples were drawn to obtain basal values. […] It was assumed that steady state plasma concentrations were reached after 5 days.
Four hours after the last intake of Pycnogenol on day five a second blood sample was obtained from each volunteer. Again, a 24 hour period of a diet free of flavonoids preceded this blood sampling. Blood samples were centrifuged and plasma was aliquoted, shock frozen and stored at -80°C until further analysis.
as §1, §2, §3

For data set [2] the following is noted: cited from earlier work; for t½: reported previously.
[3] abbreviates: both sexes, human, plasma, po, 300 mg, human volunteers, single oral dose 300 mg Pycnogenol, total (free and conjugated) plasma, t = 14 h, mean ± SD, read-out: AUC [0-t].
Setting [4] is: both sexes, human, plasma, po, 300 mg, human volunteers, single oral dose 300 mg Pycnogenol, total plasma, mean ± SD, read-out: AUC [t-8].
[5] abbreviates: both sexes, human, plasma, po, 300 mg, human volunteers, single oral dose 300 mg Pycnogenol, total plasma, mean ± SD, read-out: cmax (maximal plasma concentration).
Setting [6] is: both sexes, human, plasma, po, 300 mg, human volunteers, single oral dose 300 mg Pycnogenol, total plasma, mean ± SD.
[7] abbreviates: both sexes, human, plasma, po, 300 mg.
[8] abbreviates: human volunteers, single oral dose 300 mg Pycnogenol, total plasma, mean ± SD.
Setting [9] is: both sexes, human, plasma, oral, 300 mg, single dose 300 mg Pycnogenol, total plasma, read-out: cmax converted to molar concentration.
The mark [10] stands for this setting: 200 mg Pycnogenol once daily for five days.
Setting [11] is: human, plasma, oral, 200 mg Pycnogenol once daily for five days, 4 h after last dose, with sulfatase and glucuronidase, mean ± mean deviation, read-out: Total plasma concentration.
Where [12] appears, read: human, plasma, oral, 200 mg Pycnogenol once daily for five days, 4 h after last dose, without enzyme incubation, read-out: Free plasma concentration.
The mark [13] stands for this setting: both sexes, human, plasma, oral, 300 mg.

The structures appear in SMILES notation. Values joined by “and” are separate entries in the source; they are usually repeats but may differ in a detail not shown here. Equal entries are not always repeated. Where two headings read alike, the source gives them in different places.

In the case of `O=C(O)Cc1ccc(O)c(O)c1` [3,4-dihydroxyphenylacetic acid], in data set [1] (after Pycnogenol intake), the “detection of taxifolin degradation products in volunteers' plasma” value is given as “failed to detect”.
For orientation: IC50 means the concentration that inhibits the measured activity by half. Consider `COc1cc(CC2CCC(=O)O2)ccc1O` (centres unmarked) [M2, δ-(3-Methoxy-4-hydroxy-phenyl)-γ-valerolactone], for which, in data set [1] (after single dose and repeated ingestion of Pycnogenol), the “plasma concentration (not detected; lower limit of quantitation)” value is on record as under 50 ng/mL. Moreover, the IC50 in the data set with MMP-9 release is 500 nM.
As usually defined, the half-life is the time needed for the level to fall by half in the phase considered. As for `O=C1c2c(O)cc(O)cc2O[C@H](c2ccc(O)c(O)c2)[C@H]1O` (racemic) [Taxifolin, (±)-taxifolin], the values for the AUC(0-t) in data set [1] (setting [3]) and in data set [1] (setting [4]) were 231 ± 86 ng·h/mL and 399 ± 99 ng·h/mL, respectively. Further, the Cmax in data set [1] (setting [5]) is 33.3 ± 12.5 ng/mL. Also, the tmax in data set [1] (setting [6]) was 8 h. Besides, the half-life in data set [1] (setting [7]) was 8.89 ± 2.81 h. Also, in data set [1] (setting [8]), the “tmax (time of maximal plasma concentration)” value is recorded as 8.2 ± 2.5 h.
With `O=C1CCC(Cc2ccc(O)c(O)c2)O1` (centres unmarked) [M1, δ-(3,4-Dihydroxy-phenyl)-γ-valerolactone], the “time of first detection in plasma” value in data set [1] (after single dose 300 mg Pycnogenol, first sampling at 0.5 h) came to 6 h. The “mean concentration at peak” value in data set [1] (around 10 h after single dose 300 mg Pycnogenol, total plasma) stood at 3.59 ng/mL. Besides, the Cmax in data set [1] (setting [9]) was about 20 nM; in data set [1] (setting [5]), about 4 ng/mL. Moreover, the tmax in data set [1] (setting [6]) was about 10 h. The “presence in plasma over the experimental period of 14 h” value in data set [1] (single dose 300 mg Pycnogenol) is recorded as “still present 14 h after Pycnogenol ingestion”. The “% conjugated (mean degree of conjugation with sulfate and glucuronic acid)” value (“% conjugated” for short) in “clinical” (setting [10]) was “≈ 100%”. In addition, in “clinical” (setting [11]), the concentration at 4 h came out at 3.01 ng/mL. In the data set with MMP-9 release, the IC50 is 500 nM. For the same compound, the earliest appearance in data set [2] (after green tea ingestion) is 3 h. The “time of peak plasma levels” value in data set [2] (after ingestion of green tea) was 5 to 12 h.
A word on the t½: it is the time in which the quantity being followed falls by half. On to `O=C(O)/C=C/c1ccc(O)c(O)c1` [Caffeic acid, caffeic acid], for which the Cmax in data set [1] (setting [9]) is about 90 nM; in data set [1] (setting [5]), about 17 ng/mL; in data set [2] (after ingestion of 107 mg caffeic acid from artichoke leaf extract) it was 6.5 ng/mL; in data set [2] (after intake of 55 μg caffeic acid per kg body weight, read-out: cmax) it was 84 nM. For the same compound, the AUC(0-t) was 75.7 ± 33.5 ng·h/mL in data set [1] (setting [3]) and 82.8 ± 36.5 ng·h/mL in data set [1] (setting [4]). Further, the tmax was 3 to 4 h in data set [1] (setting [6]); 2 h in data set [2] (after ingestion of red wine); 0.5 to 1 h in data set [2] (after intake of red wine, coffee or artichoke leaf extract). In addition, the half-life in data set [1] (setting [7]) was 4.42 ± 2.47 h. Besides, in data set [1] (setting [8]), the “cmax (maximal plasma concentration)” value turned out to be 16.67 ± 13.29 ng/mL. In addition, the “tmax (time of maximal plasma concentration)” value in data set [1] (setting [8]) was 3.7 ± 2.4 h. Further, the “% conjugated” value was 69.4 ± 11.8% in the data set “clinical” (setting [10]); 69.4% and 69% in the data set “clinical” (200 mg Pycnogenol once daily for five days, listed as caffeic acid). Further, the concentration at 4 h in “clinical” (setting [11]) came to 2.42 ± 1.39 ng/mL; in the data set “clinical” (setting [12]) it was 0.56 ± 0.02 ng/mL. Further, in the data set “clinical” (single volunteers, 200 mg Pycnogenol daily for five days), the “individual degree of conjugation” value was 59.6% and 61.5% and 87.6%. The t½ in data set [2] is given as 3.08 ± 1.53 h.
Turning to `COc1cc(/C=C/C(=O)O)ccc1O` [Ferulic acid, ferulic acid], the Cmax is about 75 nM in data set [1] (setting [9]) and about 15 ng/mL in data set [1] (setting [5]). Besides, the AUC(0-t) in data set [1] (setting [3]) came to 99 ± 28.1 ng·h/mL; in data set [1] (setting [4]), 141 ± 73.9 ng·h/mL. For the same compound, the half-life in data set [1] (setting [7]) is 6.87 ± 3.83 h. In addition, in data set [1] (setting [8]), the “cmax (maximal plasma concentration)” value came to 14.78 ± 5.89 ng/mL. The “tmax (time of maximal plasma concentration)” value in data set [1] (setting [8]) is 1.2 ± 1.1 h; in data set [1] (human volunteers, single oral dose 300 mg Pycnogenol, total plasma, mean ± SD, listed as ferulic acid), 0.5 to 1 h and 1 h. For the same compound, the “% conjugated” value in the data set “clinical” (setting [10]) was “≈ 100%”. For the same compound, the concentration at 4 h in the data set “clinical” (human, in vivo, read-out: Total plasma concentration) was about 20 ng/mL. For the same compound, in data set [2] (after ingestion of 250 mg ferulic acid from breakfast cereals), the plasma concentrations is 150 to 210 nM. In addition, in data set [2] (after single ingestion of beer), the “free ferulic acid (share)” value was “around 25%”. The tmax was 0.77 h in data set [2] (other report, ref 6) and 1 to 3 h in data set [2] (other report, ref 27). Also, the t½ in data set [2] is 6.35 ± 2.95 h.
For the compound `Oc1cc(O)c2c(c1)O[C@H](c1ccc(O)c(O)c1)[C@@H](O)C2` [Catechin, (+)-catechin], in data set [1] (setting [13]), the concentration at 0.5 h was about 60 ng/mL. Besides, the concentration at 4 h in data set [1] (setting [13]) is about 100 ng/mL; in “clinical” (setting [11]), 48.6 ± 16.7 ng/mL; in the data set “clinical” (setting [12]), 21 ± 13.1 ng/mL. Further, the results for the Cmax in data set [1] (setting [9]) and in data set [1] (setting [5]) were about 370 nM and about 100 ng/mL, respectively. The tmax was at most 3 h in data set [1] (setting [6]) and 1.5 h in data set [2] (human plasma, after ingestion of red wine or reconstituted red wine). In addition, the “cmax (maximal plasma concentration)” value in data set [1] (setting [8]) is on record as 107.22 ± 55.49 ng/mL. In data set [1] (setting [8]), the “tmax (time of maximal plasma concentration)” value is given as 3.2 ± 1.7 h. In addition, in “clinical” (both, human, in vivo, 4 h), the “free catechin concentration (share of total)” value is on record as “about 56%”. The “time window of detection of unchanged compound in plasma” value in data set [2] (after a high single dose) was “between 30 min and 12 h”. Besides, the “free polyphenol concentration as share of total concentration” value in data set [2] (after a single dose of pure catechin) was 1.1 to 6.5%. For the same compound, the “time by which plasma concentrations were not significantly different from baseline” value in data set [2] (after ingestion of pure catechin) was at most 4 h.
Regarding `Oc1cc(O)cc(O)c1` [phloroglucin], in data set [1] (human, in vivo), the “detection of taxifolin degradation products in volunteers' plasma” value was “failed to detect”.
